Assay results published in PubChem BioAssay (NCI).
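Exposure lasted 48 hours, with cells grown in 96-well plates and compounds tested at five concentrations. Definition used: TGI = concentration required for complete inhibition of growth.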

Experiments:
Assay in all cases: NCI anticancer screen, dose series, 48 h
IGROV1 ovarian = test system: IGROV1 ovarian
SNB-78 CNS = test system: SNB-78 CNS
SF-295 CNS = test system: SF-295 CNS
SK-MEL-28 melanoma = test system: SK-MEL-28 melanoma
NCI-H460 lung = test system: NCI-H460 lung
SNB-19 CNS = test system: SNB-19 CNS
786-0 renal = test system: 786-0 renal
SF-539 CNS = test system: SF-539 CNS
LXFL 529 NSCLC = test system: LXFL 529 NSCLC
M19-MEL melanoma = test system: M19-MEL melanoma
COLO 205 colon = test system: COLO 205 colon
KM12 colon = test system: KM12 colon
SW-620 colon = test system: SW-620 colon
SN12C renal = test system: SN12C renal
HOP-92 NSCLC = test system: HOP-92 NSCLC
OVCAR-4 ovarian = test system: OVCAR-4 ovarian
RXF 393 renal = test system: RXF 393 renal
HL-60(TB) leukemia = test system: HL-60(TB) leukemia
K-562 leukemia = test system: K-562 leukemia
A549 NSCLC = test system: A549 NSCLC
OVCAR-8 ovarian = test system: OVCAR-8 ovarian
KM20L2 colon = test system: KM20L2 colon
NCI-H226 lung = test system: NCI-H226 lung
HCC-2998 colon = test system: HCC-2998 colon
SK-MEL-5 melanoma = test system: SK-MEL-5 melanoma
DLD-1 colon = test system: DLD-1 colon
U251 CNS = test system: U251 CNS
ACHN renal = test system: ACHN renal
SK-OV-3 ovarian = test system: SK-OV-3 ovarian
DMS 114 small cell lung = test system: DMS 114 small cell lung
HT29 colon = test system: HT29 colon
RPMI-8226 leukemia = test system: RPMI-8226 leukemia
NCI-H522 lung = test system: NCI-H522 lung
OVCAR-5 ovarian = test system: OVCAR-5 ovarian
XF 498 CNS = test system: XF 498 CNS
TK-10 renal = test system: TK-10 renal
NCI-H23 lung = test system: NCI-H23 lung
MALME-3M melanoma = test system: MALME-3M melanoma
MOLT-4 leukemia = test system: MOLT-4 leukemia
OVCAR-3 ovarian = test system: OVCAR-3 ovarian
CCRF-CEM leukemia = test system: CCRF-CEM leukemia
SNB-75 CNS = test system: SNB-75 CNS
HOP-62 NSCLC = test system: HOP-62 NSCLC
UO-31 renal = test system: UO-31 renal
CAKI-1 renal = test system: CAKI-1 renal
UACC-257 melanoma = test system: UACC-257 melanoma
A498 renal = test system: A498 renal
SF-268 CNS = test system: SF-268 CNS
EKVX NSCLC = test system: EKVX NSCLC
RXF-631 renal = test system: RXF-631 renal
SK-MEL-2 melanoma = test system: SK-MEL-2 melanoma
M14 melanoma = test system: M14 melanoma
LOX IMVI melanoma = test system: LOX IMVI melanoma

`CC1=C(C(=O)Nc2ccc([N+](=O)[O-])cc2)C(c2ccco2)C(C(=O)Nc2ccc([N+](=O)[O-])cc2)=C(C)N1` was tested, and the TGI (IGROV1 ovarian) was over 100 µM, the TGI (SNB-78 CNS) was 78.8 µM and the TGI (SF-295 CNS) was over 100 µM. It also gave a TGI (SK-MEL-28 melanoma) of over 100 µM, a TGI (NCI-H460 lung) of over 100 µM and a TGI (SNB-19 CNS) of over 100 µM. The TGI (786-0 renal) was over 100 µM, the TGI (SF-539 CNS) was over 100 µM and the TGI (LXFL 529 NSCLC) was over 100 µM. For the same molecule, the TGI (M19-MEL melanoma) was 77.2 µM, the TGI (COLO 205 colon) was 51.1 µM and the TGI (KM12 colon) was 33.9 µM. It also gave a TGI (SW-620 colon) of over 100 µM, a TGI (SN12C renal) of over 100 µM and a TGI (HOP-92 NSCLC) of 56.8 µM. For the same molecule, the TGI (OVCAR-4 ovarian) was 46.7 µM, the TGI (RXF 393 renal) was 60.3 µM and the TGI (HL-60(TB) leukemia) was 26.5 µM. It also gave a TGI (K-562 leukemia) of over 100 µM, a TGI (A549 NSCLC) of over 100 µM and a TGI (OVCAR-8 ovarian) of over 100 µM. It also gave a TGI (KM20L2 colon) of 60 µM, a TGI (NCI-H226 lung) of over 100 µM and a TGI (HCC-2998 colon) of 47.9 µM. For the same molecule, the TGI (SK-MEL-5 melanoma) was 93.4 µM, the TGI (DLD-1 colon) was over 100 µM and the TGI (U251 CNS) was over 100 µM. For the same molecule, the TGI (ACHN renal) was 53.4 µM, the TGI (SK-OV-3 ovarian) was 62.9 µM and the TGI (DMS 114 small cell lung) was 43.2 µM. It also gave a TGI (HT29 colon) of over 100 µM, a TGI (RPMI-8226 leukemia) of 25.5 µM and a TGI (NCI-H522 lung) of 64.3 µM. It also gave a TGI (OVCAR-5 ovarian) of over 100 µM, a TGI (XF 498 CNS) of over 100 µM and a TGI (TK-10 renal) of 94.3 µM. The TGI (NCI-H23 lung) was 65.9 µM, the TGI (MALME-3M melanoma) was 55.1 µM and the TGI (MOLT-4 leukemia) was 52.5 µM. For the same molecule, the TGI (OVCAR-3 ovarian) was 88.3 µM, the TGI (CCRF-CEM leukemia) was 51.2 µM and the TGI (SNB-75 CNS) was over 100 µM. It also gave a TGI (HOP-62 NSCLC) of 71.1 µM, a TGI (UO-31 renal) of 60.1 µM and a TGI (CAKI-1 renal) of 90.1 µM. The TGI (UACC-257 melanoma) was 98.5 µM, the TGI (A498 renal) was 82 µM and the TGI (SF-268 CNS) was over 100 µM. It also gave a TGI (EKVX NSCLC) of 73.6 µM, a TGI (RXF-631 renal) of over 100 µM and a TGI (SK-MEL-2 melanoma) of 28 µM. For the same molecule, the TGI (M14 melanoma) was over 100 µM and the TGI (LOX IMVI melanoma) was over 100 µM.
